Experimental data reported in patent publication US8552013B2, “Heterocyclic compounds based on N6-substituted adenine, methods of their preparation, their use for preparation of drugs, cosmetic preparations and growth regulators, pharmaceutical preparations, cosmetic preparations and growth regulators containing these compounds” (USTAV Experimentalni Botaniky Akademie Ved Ceske Republiky, priority 2001, dated 2013).
pEC50, pIC50: −log10 of the molar value.

Assays:
[1] = tested on: Human lymphocytes; assay: Immunosuppressive activity, 3H-thymidine incorporation in concanavalin A activated lymphocytes; format: cell-based; conditions: Lymphocyte, 72 hours, [3H]-TdR, read-out: Human lymphocytes ED50
Text: One of the most important parameters of specific cellular immunity is proliferative response of lymphocytes to antigens or polyclonal mitogens. The majority of normal mammalian peripheral lymphocytes comprise resting cells. Antigens or nonspecific polyclonal mitogens have the capacity to activate lymphoid cells and this is accompanied by dramatic changes of intracellular metabolism (mitochondrial activity, protein synthesis, nucleic acids synthesis, formation of blastic cells and cellular proliferation). […] Variety of in vitro assays was developed to measure proliferative response of lymphocytes. The most commonly used is ^3H-thymidine incorporation method.
During cell proliferation, DNA has to be replicated before the cell is divided into two daughter cells. This close association between cell doublings and DNA synthesis is very attractive for assessing cell proliferation. If labelled DNA precursors are added to the cell culture, cells that are about to divide incorporate the labelled nucleotide into their DNA. Traditionally, those assays usually involve the use of radiolabelled nucleosides, particularly tritiated thymidine ([^3H]-TdR). The amount of [^3H]-TdR incorporated into the cellular DNA is quantified by liquid scintillation counting.
Human heparinized peripheral blood was obtained from healthy volunteers by cubital vein punction. The blood was diluted in PBS (1:3) and mononuclear cells were separated by centrifugation in Ficoll-Hypaque density gradient (Pharmacia, 1.077 g/ml) at 2200 rpm for 30 minutes. Following centrifugation, lymphocytes were washed in PBS and resuspended in cell culture medium (RMPI 1640, 2 mM glutamine, 100 U/ml penicillin, 100 μg/ml streptomycin, 10% fetal calf serum and sodium bicarbonate).
The cells were diluted at target density of 1,100,000 cells/ml were added by pipette (180 μl) into 96/well microtiter plates. Four-fold dilutions of the intended test concentration were added at time zero in 20 μl aliquots to the microtiter plate wells. Usually, test compound was evaluated at six 4-fold dilutions. In routine testing, the highest well concentration was 266.7 μM. All drug concentrations were examined in duplicates. All wells with exception of unstimulated controls were activated with 50 μl of concanavalin A (25 μg/ml). Incubations of cells with test compounds lasted for 72 hours at 37° C., in 5% CO2 atmosphere and 100% humidity. At the end of incubation period, the cells were assayed by using the [^3H]-TdR:
Cell cultures were incubated with 0.5 μCi (20 μl of stock solution 500 μCi/ml) per well for 6 hours at 37° C. and 5% CO2. The automated cell harvester was used to lyse cells in water and adsorb the DNA onto glass-fiber filters in the format of microtiter plate. The DNA incorporated [^3H]-TdR was retained on the filter while unincorporated material passes through. The filters were dried at room temperature overnight, sealed into a sample bag with 10-12 ml of scintillant. The amount of [^3H]-TdR present in each filter (in cpm) was determined by scintillation counting in a Betaplate liquid scintillation counter. The effective dose of immunosuppressant (ED) was calculated using the following equation: ED=(CCPMdrug exposed well/mean CCPMcontrol wells)×100%. The ED50 value, the drug concentration inhibiting proliferation of 50% of lymphocytes, was calculated from the obtained dose response curves.

[2] = tested on: human diploid fibroblasts (HCA cells); assay: Senescence, beta-galactosidase staining of human diploid fibroblasts; format: cell-based; conditions: for SENESCENT CELLS (%) HCA25: passage 25; for SENESCENT CELLS (%) HCA45: passage 45; for SENESCENT CELLS (%) HCA80: passage 80
Experimental: In this example, human diploid fibroblasts (HCA cells of various passage levels: passage 25—designated HCA25; passage 45—designated HCA45; passage 80—designated HCA80) were stained for β-galactosidase activity. The medium used for cell cultivation was removed, the cells were washed twice in […], and fixed in 2-3 ml of fixing solution comprised of a 2% formaldehyde and 0.2% glutaraldehyde in PBS. The cells were incubated at room temperature for 5 minutes, then washed twice with PBS. The cells were subsequently incubated at 37° C. (without CO2) for 1 to 16 hours in 2-3 ml of a solution comprising potassium ferricyanide (5 mM), potassium ferrocyanide (5 mM), MgCl2 (2 mM), X-gal (5-bromo-4-chloro-3-indolyl-β-D-galactopyranoside) (1 mg/ml), in citric/phosphate buffer, pH 6.0). […] In this experiment, senescent cells, but not other cells were stained blue due to the action of β-galactosidase on the substrate (FIG. 4).

[3] = tested on: Amaranthus caudatus cotyledon/hypocotyl explants; assay: Amaranthus bioassay, betacyanin content; format: in vivo; conditions: betacyanin content at the concentration with highest activity
[4] = tested on: B16-F0 melanoma; assay: Calcein AM cytotoxicity, B16-F0; format: cell-based; conditions: Mus musculus, B16F0, 72 h, read-out: IC 50, B16-F0
Text: (§1) One of the parameters used, as the basis for cytotoxicity assays, is the metabolic activity of viable cells. For example, a microtiter assay, which uses the Calcein AM, is now widely used to quantitate cell proliferation and cytotoxicity. For instance, this assay is used in drug screening programs and in chemosensitivity testing. Because only metabolically active cells cleave Calcein AM, these assays detect viable cells exclusively. The quantity of reduced Calcein AM corresponds to the number of vital cells in the culture.
(§2) Human T-lymphoblastic leukemia cell line CEM; promyelocytic HL-60 and monocytic U937 leukemias; breast carcinoma cell lines MCF-7, BT549, MDA-MB-231; glioblastoma U87MG cells; cervical carcinoma cells HELA; sarcoma cells U2OS and Saos2; hepatocellular carcinoma HepG2; mouse fibroblasts NIH3T3; mouse immortalized bone marrow macrophages B2.4 and B10A.4; P388D1 and L1210 leukemia; B16 and B16F10 melanomas were used for routine screening of compounds. The cells were maintained in Nunc/Corning 80 cm^2 plastic tissue culture flasks and cultured in cell culture medium (DMEM with 5 g/l glucose, 2 mM glutamine, 100 U/ml penicillin, 100 μg/ml streptomycin, 10% fetal calf serum and sodium bicarbonate).
(§3) The cell suspensions that were prepared and diluted according to the particular cell type and the expected target cell density (2.500-30.000 cells per well based on cell growth characteristics) were added by pipette (80 μl) into 96/well microtiter plates. Inoculates were allowed a pre-incubation period of 24 hours at 37° C. and 5% CO2 for stabilisation. Four-fold dilutions of the intended test concentration were added at time zero in 20 μl aliquots to the microtiter plate wells. Usually, test compound was evaluated at six 4-fold dilutions. In routine testing, the highest well concentration was 266.7 μM, but it can be the matter of change dependent on the agent. All drug concentrations were examined in duplicates. Incubations of cells with the test compounds lasted for 72 hours at 37° C., in 5% CO2 atmosphere and 100% humidity. At the end of incubation period, the cells were assayed by using the Calcein AM. Ten microliters of the stock solution were pipetted into each well and incubated further for 1 hours. Fluorescence (FD) was measured with the Labsystem FIA Reader Fluoroscan Ascent (UK). The tumour cell survival (GI50) was calculated using the following equitation: TCS═(FDdrug exposed well/mean FDcontrol wells)×100%. The GI50 value, the drug concentration lethal to 50% of the tumour cells, was calculated from the obtained dose response curves (FIG. 1).

[5] = tested on: Triticum aestivum cv. Hereward leaf tips; assay: Retention of chlorophyll in excised wheat leaf tips; format: in vivo; conditions: chlorophyll retention at the concentration with highest activity
Method in brief: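 Tips of first leaves from 7-day wheat (cv. Hereward) seedlings kept on compound solutions (10^−8 to 10^−4 M, from DMSO stock) for 96 h in the dark at 25 °C. Chlorophyll extracted in 80% ethanol at 80 °C and read at 665 nm. Activity at the best concentration expressed relative to 10^−4 M BAP (100%), five replicates.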

[6] = tested on: K-562; assay: Calcein AM cytotoxicity, K-562; format: cell-based; conditions: Homo sapiens, K562, 72 h, read-out: IC 50, K-562
Text: as §1
(§4) The cells were maintained in Nunc/Corning 80 cm^2 plastic tissue culture flasks and cultured in cell culture medium (DMEM with 5 g/l glucose, 2 mM glutamine, 100 U/ml penicillin, 100 μg/ml streptomycin, 10% fetal calf serum and sodium bicarbonate).
as §3, with “In routine testing, the highest well concentration was 266.7 μM, but it can be the matter of change dependent on the agent.” left out, “(UK).” for “(UK). The tumour cell survival (GI50) was calculated using the following equitation: TCS═(FDdrug exposed well/mean FDcontrol wells)×100%. The GI50 value, the drug concentration lethal to 50% of the tumour cells, was calculated from the obtained dose response curves (FIG. 1).”

[7] = tested on: promyelocytic HL-60 leukemia; assay: Calcein AM cytotoxicity, HL60; format: cell-based, human; conditions: Homo sapiens, HL-60, 72 h, read-out: IC 50, HL60
Text: as §1, §4
as §3, with “In routine testing, the highest well concentration was 266.7 μM, but it can be the matter of change dependent on the agent.” left out, “(UK).” for “(UK). The tumour cell survival (GI50) was calculated using the following equitation: TCS═(FDdrug exposed well/mean FDcontrol wells)×100%. The GI50 value, the drug concentration lethal to 50% of the tumour cells, was calculated from the obtained dose response curves (FIG. 1).”

[8] = tested on: tobacco callus Nicotiana tabacum L. cv. Wisconsin 38; assay: Cytokinin-dependent tobacco callus growth; format: cell-based; conditions: fresh callus weight at the concentration with highest activity
[9] = tested on: breast carcinoma cell line MCF-7; assay: Calcein AM cytotoxicity, MCF7; format: cell-based, human; conditions: Homo sapiens, MCF7, 72 h, read-out: IC 50, MCF7
Text: as §1, §4
as §3, with “In routine testing, the highest well concentration was 266.7 μM, but it can be the matter of change dependent on the agent.” left out, “(UK).” for “(UK). The tumour cell survival (GI50) was calculated using the following equitation: TCS═(FDdrug exposed well/mean FDcontrol wells)×100%. The GI50 value, the drug concentration lethal to 50% of the tumour cells, was calculated from the obtained dose response curves (FIG. 1).”

[10] = tested on: T-lymphoblastic leukemia cell line CEM; assay: Calcein AM cytotoxicity, CEM; format: cell-based, human
Text: as §1, §4
as §3, with “In routine testing, the highest well concentration was 266.7 μM, but it can be the matter of change dependent on the agent.” left out, “(UK).” for “(UK). The tumour cell survival (GI50) was calculated using the following equitation: TCS═(FDdrug exposed well/mean FDcontrol wells)×100%. The GI50 value, the drug concentration lethal to 50% of the tumour cells, was calculated from the obtained dose response curves (FIG. 1).”

[11] = tested on: HOS; assay: Calcein AM cytotoxicity, HOS; format: cell-based; conditions: Homo sapiens, HOS, 72 h
Text: as §1, §2, §3

Structure (SMILES) | pEC50 [1] | SENESCENT CELLS (%) HCA25 [2] | SENESCENT CELLS (%) HCA45 [2] | SENESCENT CELLS (%) HCA80 [2] | activity (%) [10^−5 mol · l^−1 BAP = 100%] [3] | pIC50 [4] | Activity (%) [10^−4 mol · l^−1 BAP = 100%] [5] | Activity (%) [10^−4 mol · l^−1 BAP = 100%] [8] | also measured
Cc1cccc(CNc2ncnc3nc[nH]c23)c1 [6-(3-methylbenzylamino)purine] | – | – | – | – | 84 (±14) % | 3.78 | 111 (±16) % | 79 (±5) % | pIC50 [6]: < 3.78; pIC50 [7]: < 3.78; pIC50 [9]: 3.99; pIC50 ([10]; Homo sapiens, 72 h): < 3.78
COc1ccc(CNc2ncnc3nc[nH]c23)c(O)c1 [2-hydroxy-4-methoxybenzylamino, 6-(2-hydroxy-4-methoxybenzylamino)purine] | 5.74 | – | – | – | – | – | – | – | –
COc1ccc(CNc2ncnc3nc[nH]c23)cc1 [6-(4-methoxybenzylamino)purine] | – | – | – | – | 23 (±2) % | 4.07 | 79 (±6) % | 39 (±17) % | pIC50 [11]: < 3.78
Fc1ccc(CNc2ncnc3nc[nH]c23)cc1Cl [6-(3-chloro-4-fluorobenzylamino)purine] | – | – | – | – | 91 (±7) % | < 3.78 | 141 (±20) % | 90 (±1) % | pIC50 [6]: < 3.78; pIC50 [7]: < 3.78; pIC50 [9]: < 3.78; pIC50 ([10]; 72 hours, listed as 3Cl4F BAP): 4.02; pIC50 ([10]; Homo sapiens, 72 h): 3.87

Continued, in another order:

pEC50 [1] | Structure (SMILES) | SENESCENT CELLS (%) HCA25 [2] | SENESCENT CELLS (%) HCA45 [2] | SENESCENT CELLS (%) HCA80 [2] | activity (%) [10^−5 mol · l^−1 BAP = 100%] [3] | pIC50 [4] | Activity (%) [10^−4 mol · l^−1 BAP = 100%] [5] | Activity (%) [10^−4 mol · l^−1 BAP = 100%] [8] | also measured
4.92 | Nc1ccc(Nc2ncnc3nc[nH]c23)cc1Cl [3-chloro-4-aminoanilino, 6-(3-chloro-4-aminoanilino)purine] | 5% | 5% | 24% | – | – | – | – | –
5.21 | Clc1ccc(Nc2ncnc3nc[nH]c23)cc1 [4-chloroanilino, 6-(4-chloroanilino)purine] | 5% | 5% | 26% | – | – | – | – | –
5.14 | Clc1cccc(Nc2ncnc3nc[nH]c23)c1 [3-chloroanilino, 6-(3-chloroanilino)purine] | 4% | 5% | 25% | – | – | – | – | –
4.91 | Nc1cc(Cl)cc(Nc2ncnc3nc[nH]c23)c1 [3-chloro-5-aminoanilino, 6-(3-chloro-5-aminoanilino)purine] | 3% | 6% | 24% | – | – | – | – | –
5.08 | Nc1cc(Nc2ncnc3nc[nH]c23)ccc1Cl [3-amino-4-chloroanilino, 6-(3-amino-4-chloroanilino)purine] | 4% | 6% | 22% | – | – | – | – | –
5.33 | Brc1ccc(Nc2ncnc3nc[nH]c23)cc1 [4-bromoanilino, 6-(4-bromoanilino)purine] | 5% | 3% | 25% | – | – | – | – | –
